This note sets out measurements from ChEMBL document CHEMBL5291721, “A preclinical secondary pharmacology resource illuminates target-adverse drug reaction associations of marketed drugs” (Nat Commun, 2023).

The target in test [1] is T1, Adenosine receptor A3 (Homo sapiens, UniProt P0DMS8).
T1 sequence (P0DMS8 whole entry): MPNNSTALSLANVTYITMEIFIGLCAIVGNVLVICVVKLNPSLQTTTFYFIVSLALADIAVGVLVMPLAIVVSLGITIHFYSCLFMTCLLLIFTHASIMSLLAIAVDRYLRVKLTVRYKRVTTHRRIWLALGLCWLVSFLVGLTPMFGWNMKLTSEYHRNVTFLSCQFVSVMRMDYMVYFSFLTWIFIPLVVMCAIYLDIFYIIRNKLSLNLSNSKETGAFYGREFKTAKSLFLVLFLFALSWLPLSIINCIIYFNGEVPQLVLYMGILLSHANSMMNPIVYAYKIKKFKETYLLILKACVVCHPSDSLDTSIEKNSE

The target of another test is D(3) dopamine receptor (Homo sapiens, UniProt P35462).
The target of test [2] is Gamma-aminobutyric acid receptor subunit alpha-1/alpha-2/beta-2/gamma-2 (Homo sapiens, UniProt P14867+P18507+P47869+P47870). The class given is protein-complex assay.
For test [3], the target named is T2, 5-hydroxytryptamine receptor 1A (Homo sapiens, UniProt P08908).
T2 sequence (P08908 whole entry): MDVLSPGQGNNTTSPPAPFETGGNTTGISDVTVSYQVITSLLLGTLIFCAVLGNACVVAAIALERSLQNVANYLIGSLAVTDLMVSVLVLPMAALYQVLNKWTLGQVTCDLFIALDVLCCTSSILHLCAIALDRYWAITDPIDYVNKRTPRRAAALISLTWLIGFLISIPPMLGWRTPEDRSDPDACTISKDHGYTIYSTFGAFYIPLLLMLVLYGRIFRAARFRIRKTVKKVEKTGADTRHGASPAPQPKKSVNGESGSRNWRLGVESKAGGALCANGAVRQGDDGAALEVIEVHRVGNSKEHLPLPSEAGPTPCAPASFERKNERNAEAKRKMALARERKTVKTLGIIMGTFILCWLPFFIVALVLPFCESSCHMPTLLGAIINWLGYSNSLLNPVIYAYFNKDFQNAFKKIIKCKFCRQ

Test [4] concerns the target 5-hydroxytryptamine receptor 2B (Homo sapiens, UniProt P41595). The class given is functional, cell-based.
Test [5] has as its target Vascular endothelial growth factor receptor 2 (Homo sapiens, UniProt P35968). The class given is functional.
For test [6], the target named is T1, Adenosine receptor A3. The source holds these as a separate data set.
In test [7] the target is T3, Alpha-2A adrenergic receptor (Homo sapiens, UniProt P08913).
T3 sequence (P08913 whole entry): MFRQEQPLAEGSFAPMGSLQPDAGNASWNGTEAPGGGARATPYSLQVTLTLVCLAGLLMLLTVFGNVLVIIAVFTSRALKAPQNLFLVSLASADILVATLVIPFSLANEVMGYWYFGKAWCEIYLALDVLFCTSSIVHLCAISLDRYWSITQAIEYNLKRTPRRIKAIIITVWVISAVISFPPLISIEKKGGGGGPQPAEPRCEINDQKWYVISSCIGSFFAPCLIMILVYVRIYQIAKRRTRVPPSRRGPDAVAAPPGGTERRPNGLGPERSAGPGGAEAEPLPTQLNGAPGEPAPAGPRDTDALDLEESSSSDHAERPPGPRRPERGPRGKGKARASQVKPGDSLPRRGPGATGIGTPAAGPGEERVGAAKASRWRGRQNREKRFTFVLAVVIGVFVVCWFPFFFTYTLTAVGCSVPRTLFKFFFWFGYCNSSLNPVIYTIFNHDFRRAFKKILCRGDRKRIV
It is filed as functional, cell-based.

In another test the target is D(1A) dopamine receptor (Homo sapiens, UniProt P21728). It is filed as functional, cell-based.
Test [8] concerns the target T4, Gamma-aminobutyric acid receptor subunit alpha-1 (Rattus norvegicus, UniProt P62813).
The target of test [9] is T4, Gamma-aminobutyric acid receptor subunit alpha-1. It is filed as functional.
Another test concerns the target Histamine H2 receptor (Homo sapiens, UniProt P25021). It is filed as functional, cell-based.
In test [10] the target is T2, 5-hydroxytryptamine receptor 1A. The class given is functional, cell-based.
The next test concerns the target Motilin receptor (Homo sapiens, UniProt O43193).
The target of test [11] is Delta-type opioid receptor (Homo sapiens, UniProt P41143).
Test [12] addresses Sodium-dependent dopamine transporter (Homo sapiens, UniProt Q01959).
Test [13] concerns the target T5, Amine oxidase [flavin-containing] A (Homo sapiens, UniProt P21397).
T5 sequence (P21397 whole entry): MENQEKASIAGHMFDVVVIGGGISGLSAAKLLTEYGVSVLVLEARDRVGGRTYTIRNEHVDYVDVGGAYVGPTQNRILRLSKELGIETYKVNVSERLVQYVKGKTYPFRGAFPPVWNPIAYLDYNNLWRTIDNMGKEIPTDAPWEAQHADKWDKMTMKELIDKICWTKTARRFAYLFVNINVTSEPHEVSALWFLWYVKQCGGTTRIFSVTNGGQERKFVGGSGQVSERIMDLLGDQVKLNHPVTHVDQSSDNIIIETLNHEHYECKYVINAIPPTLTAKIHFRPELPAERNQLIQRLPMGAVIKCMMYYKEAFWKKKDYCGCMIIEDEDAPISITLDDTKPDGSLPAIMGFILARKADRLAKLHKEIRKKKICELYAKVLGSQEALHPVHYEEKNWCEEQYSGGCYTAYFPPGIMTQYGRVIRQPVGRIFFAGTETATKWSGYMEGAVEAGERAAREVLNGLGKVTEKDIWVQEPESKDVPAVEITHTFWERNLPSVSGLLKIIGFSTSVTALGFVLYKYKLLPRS
It is filed as functional.

As a reminder, the AC50 is the concentration at which the activity in the assay is half-maximal. Lower therefore signals activity at low concentration.
Note: assay procedure not described here.

Sequence of D(3) dopamine receptor (P35462 whole entry): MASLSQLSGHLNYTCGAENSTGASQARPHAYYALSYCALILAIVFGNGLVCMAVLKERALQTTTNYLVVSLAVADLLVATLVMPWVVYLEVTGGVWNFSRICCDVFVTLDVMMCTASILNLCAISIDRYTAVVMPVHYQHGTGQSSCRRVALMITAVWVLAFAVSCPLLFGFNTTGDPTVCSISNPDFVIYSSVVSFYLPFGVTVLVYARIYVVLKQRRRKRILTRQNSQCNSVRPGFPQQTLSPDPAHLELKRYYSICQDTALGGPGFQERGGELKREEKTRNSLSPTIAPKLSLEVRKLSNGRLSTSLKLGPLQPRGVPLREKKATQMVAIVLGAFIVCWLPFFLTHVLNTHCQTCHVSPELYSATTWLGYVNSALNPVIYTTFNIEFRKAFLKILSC
Sequence of Vascular endothelial growth factor receptor 2 (P35968 whole entry): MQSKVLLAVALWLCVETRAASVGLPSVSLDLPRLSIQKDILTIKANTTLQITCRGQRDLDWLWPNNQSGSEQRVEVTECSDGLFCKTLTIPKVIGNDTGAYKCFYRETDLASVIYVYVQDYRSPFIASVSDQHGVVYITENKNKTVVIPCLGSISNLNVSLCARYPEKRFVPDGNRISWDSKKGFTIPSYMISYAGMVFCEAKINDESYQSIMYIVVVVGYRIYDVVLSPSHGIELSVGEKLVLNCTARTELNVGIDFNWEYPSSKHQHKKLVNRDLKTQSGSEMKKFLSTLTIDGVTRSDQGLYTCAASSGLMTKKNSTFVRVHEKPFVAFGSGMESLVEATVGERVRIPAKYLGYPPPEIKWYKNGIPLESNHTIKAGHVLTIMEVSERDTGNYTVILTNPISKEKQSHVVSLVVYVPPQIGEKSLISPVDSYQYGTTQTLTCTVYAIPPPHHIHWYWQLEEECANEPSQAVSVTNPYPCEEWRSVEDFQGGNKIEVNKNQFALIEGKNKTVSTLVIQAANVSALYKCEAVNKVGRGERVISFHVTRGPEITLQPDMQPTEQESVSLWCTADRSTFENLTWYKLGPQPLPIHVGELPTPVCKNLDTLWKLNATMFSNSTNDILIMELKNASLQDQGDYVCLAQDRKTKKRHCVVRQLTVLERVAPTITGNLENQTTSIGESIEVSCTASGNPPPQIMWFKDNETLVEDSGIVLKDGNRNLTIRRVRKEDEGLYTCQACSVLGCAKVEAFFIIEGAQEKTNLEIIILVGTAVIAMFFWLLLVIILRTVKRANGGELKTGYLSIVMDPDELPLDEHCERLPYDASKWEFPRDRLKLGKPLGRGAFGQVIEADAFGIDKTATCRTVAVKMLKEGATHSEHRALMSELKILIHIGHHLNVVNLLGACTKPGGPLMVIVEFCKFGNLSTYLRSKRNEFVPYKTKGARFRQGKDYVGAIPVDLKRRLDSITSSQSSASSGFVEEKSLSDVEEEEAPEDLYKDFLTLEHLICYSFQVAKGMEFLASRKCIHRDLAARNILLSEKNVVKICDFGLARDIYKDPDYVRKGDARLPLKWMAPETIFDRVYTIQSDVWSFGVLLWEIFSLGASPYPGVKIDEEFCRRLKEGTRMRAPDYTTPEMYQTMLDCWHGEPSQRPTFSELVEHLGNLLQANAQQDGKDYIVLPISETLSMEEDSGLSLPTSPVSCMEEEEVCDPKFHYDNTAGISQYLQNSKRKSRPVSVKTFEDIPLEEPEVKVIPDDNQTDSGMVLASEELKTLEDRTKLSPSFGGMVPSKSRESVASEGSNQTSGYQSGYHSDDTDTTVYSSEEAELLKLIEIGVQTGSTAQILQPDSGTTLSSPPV
Sequence of 5-hydroxytryptamine receptor 2B (P41595 whole entry): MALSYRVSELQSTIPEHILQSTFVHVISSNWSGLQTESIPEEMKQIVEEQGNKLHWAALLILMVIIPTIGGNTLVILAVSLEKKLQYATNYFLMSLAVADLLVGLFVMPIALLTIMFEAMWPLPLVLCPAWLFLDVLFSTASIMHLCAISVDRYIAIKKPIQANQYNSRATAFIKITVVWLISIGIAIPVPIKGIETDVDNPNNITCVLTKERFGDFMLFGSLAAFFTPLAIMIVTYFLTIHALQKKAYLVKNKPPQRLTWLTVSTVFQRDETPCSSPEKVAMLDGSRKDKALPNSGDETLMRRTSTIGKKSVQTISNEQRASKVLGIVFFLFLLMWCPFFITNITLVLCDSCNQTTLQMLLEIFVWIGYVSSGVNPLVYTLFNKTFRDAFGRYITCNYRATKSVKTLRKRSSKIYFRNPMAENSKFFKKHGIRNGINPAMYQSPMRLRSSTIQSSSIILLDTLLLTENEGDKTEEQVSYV
Sequence of Gamma-aminobutyric acid receptor subunit alpha-1/alpha-2/beta-2/gamma-2 (P14867 whole entry): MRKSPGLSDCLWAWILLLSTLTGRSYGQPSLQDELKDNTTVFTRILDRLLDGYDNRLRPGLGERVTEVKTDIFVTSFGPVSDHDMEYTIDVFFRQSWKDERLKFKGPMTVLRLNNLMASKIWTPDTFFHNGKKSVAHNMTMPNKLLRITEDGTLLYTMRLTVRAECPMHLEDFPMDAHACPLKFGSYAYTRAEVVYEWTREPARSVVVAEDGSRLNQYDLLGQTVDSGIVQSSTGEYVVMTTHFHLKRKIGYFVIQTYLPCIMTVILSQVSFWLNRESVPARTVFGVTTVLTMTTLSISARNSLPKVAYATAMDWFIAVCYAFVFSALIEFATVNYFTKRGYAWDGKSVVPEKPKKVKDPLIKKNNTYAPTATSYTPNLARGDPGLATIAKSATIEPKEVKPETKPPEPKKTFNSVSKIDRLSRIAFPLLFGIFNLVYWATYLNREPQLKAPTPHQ
Sequence of Gamma-aminobutyric acid receptor subunit alpha-1/alpha-2/beta-2/gamma-2 (P47870 whole entry): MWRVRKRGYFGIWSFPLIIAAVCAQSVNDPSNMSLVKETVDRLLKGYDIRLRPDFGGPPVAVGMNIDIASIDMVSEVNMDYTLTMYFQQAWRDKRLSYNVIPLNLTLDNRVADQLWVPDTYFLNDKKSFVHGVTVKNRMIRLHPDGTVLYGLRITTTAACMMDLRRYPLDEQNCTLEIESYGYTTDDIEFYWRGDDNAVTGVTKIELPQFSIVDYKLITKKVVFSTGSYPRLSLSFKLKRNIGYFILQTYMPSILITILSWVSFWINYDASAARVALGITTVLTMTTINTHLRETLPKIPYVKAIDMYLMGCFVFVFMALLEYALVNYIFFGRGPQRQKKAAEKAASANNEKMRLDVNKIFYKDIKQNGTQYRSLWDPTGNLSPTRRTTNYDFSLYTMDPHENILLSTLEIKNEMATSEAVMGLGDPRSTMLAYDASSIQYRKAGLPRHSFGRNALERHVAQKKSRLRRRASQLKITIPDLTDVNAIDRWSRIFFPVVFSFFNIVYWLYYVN
Sequence of Gamma-aminobutyric acid receptor subunit alpha-1/alpha-2/beta-2/gamma-2 (P18507 whole entry): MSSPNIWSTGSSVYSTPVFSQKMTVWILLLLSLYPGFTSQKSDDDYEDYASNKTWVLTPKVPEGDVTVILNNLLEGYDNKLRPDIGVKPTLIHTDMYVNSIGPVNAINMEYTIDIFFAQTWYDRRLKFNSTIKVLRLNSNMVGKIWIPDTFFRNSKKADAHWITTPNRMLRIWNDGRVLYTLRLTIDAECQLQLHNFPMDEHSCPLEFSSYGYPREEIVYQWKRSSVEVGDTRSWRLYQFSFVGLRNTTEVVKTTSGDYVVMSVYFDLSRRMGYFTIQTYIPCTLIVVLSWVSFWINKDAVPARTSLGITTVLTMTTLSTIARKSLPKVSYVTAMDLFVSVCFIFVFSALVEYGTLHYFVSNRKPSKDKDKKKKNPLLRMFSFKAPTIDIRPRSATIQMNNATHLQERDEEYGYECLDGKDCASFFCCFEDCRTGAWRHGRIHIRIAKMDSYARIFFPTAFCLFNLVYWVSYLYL
Sequence of Gamma-aminobutyric acid receptor subunit alpha-1/alpha-2/beta-2/gamma-2 (P47869 whole entry): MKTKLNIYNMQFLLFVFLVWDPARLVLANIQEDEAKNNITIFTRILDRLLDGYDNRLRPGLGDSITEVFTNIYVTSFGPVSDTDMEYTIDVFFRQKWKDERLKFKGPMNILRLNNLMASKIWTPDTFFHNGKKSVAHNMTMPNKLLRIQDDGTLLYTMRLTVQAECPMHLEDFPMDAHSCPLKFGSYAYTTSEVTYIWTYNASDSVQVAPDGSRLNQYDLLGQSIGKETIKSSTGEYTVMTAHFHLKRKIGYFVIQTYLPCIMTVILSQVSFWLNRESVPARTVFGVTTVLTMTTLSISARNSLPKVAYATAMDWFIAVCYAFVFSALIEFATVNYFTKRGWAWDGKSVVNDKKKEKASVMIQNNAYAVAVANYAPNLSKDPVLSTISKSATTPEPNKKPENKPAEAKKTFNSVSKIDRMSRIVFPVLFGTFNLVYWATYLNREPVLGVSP
T4 sequence (P62813 whole entry): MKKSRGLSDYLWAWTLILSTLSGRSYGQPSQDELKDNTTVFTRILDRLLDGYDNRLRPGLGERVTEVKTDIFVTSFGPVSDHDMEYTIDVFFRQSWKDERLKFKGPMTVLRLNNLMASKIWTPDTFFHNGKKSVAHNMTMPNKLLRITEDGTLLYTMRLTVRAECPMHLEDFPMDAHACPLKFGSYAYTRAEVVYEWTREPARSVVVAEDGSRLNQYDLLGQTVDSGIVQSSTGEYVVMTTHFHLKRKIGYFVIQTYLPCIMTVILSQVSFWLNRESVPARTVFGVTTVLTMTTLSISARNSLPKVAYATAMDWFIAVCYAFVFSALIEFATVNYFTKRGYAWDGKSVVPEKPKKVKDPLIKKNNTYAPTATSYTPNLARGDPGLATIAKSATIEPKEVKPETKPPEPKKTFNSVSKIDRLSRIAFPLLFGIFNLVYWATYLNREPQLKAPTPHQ
Sequence of Histamine H2 receptor (P25021 whole entry): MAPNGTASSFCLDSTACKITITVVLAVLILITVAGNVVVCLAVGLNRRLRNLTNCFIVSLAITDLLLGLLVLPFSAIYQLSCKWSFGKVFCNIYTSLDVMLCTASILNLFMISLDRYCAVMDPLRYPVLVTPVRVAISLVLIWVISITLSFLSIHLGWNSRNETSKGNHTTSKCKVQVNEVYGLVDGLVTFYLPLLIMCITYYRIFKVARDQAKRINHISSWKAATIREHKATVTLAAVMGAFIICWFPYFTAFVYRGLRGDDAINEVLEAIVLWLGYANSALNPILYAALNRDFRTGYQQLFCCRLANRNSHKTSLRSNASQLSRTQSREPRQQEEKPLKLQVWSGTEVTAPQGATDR

As for `C[C@@H](O)[C@H]1C(=O)N2C(C(=O)O)=C([C@H]3CCCO3)S[C@H]12` [FAROPENEM], the AC50 (on Adenosine receptor A3 [1]; at D(3) dopamine receptor; in [2]; in test [3]; in test [4]; in test [5]) was > 30 µM throughout.

Consider `COCCOc1cnc(NS(=O)(=O)c2ccccc2)nc1` [GLYMIDINE], for which the AC50 (on Adenosine receptor A3 [1]; at D(3) dopamine receptor; in [2]; in test [3]; in [4]; in test [5]) was > 30 µM throughout.

Consider `CC(N)CCCC(C)(C)O` (stereo unspecified) [HEPTAMINOL], for which the AC50 (at Adenosine receptor A3 [1]; on D(3) dopamine receptor; in test [2]; in [3]; in [4]; in [5]) was > 30 µM in each case.

As to `CCC(=O)O[C@]1(C(=O)COC(C)=O)CC[C@H]2[C@@H]3CCC4=CC(=O)CC[C@]4(C)[C@H]3[C@@H](O)C[C@@]21C` [HYDROCORTISONE ACEPONATE], the AC50 (at Adenosine receptor A3 [1]; on D(3) dopamine receptor; in test [2]; in test [3]; in test [4]; in test [5]) was > 30 µM throughout.

`O=[N+]([O-])O[C@H]1CO[C@H]2[C@@H]1OC[C@H]2O[N+](=O)[O-]` [ISOSORBIDE DINITRATE]: the AC50 (at Adenosine receptor A3 [1]; on D(3) dopamine receptor; in test [2]; in test [3]; in [4]; in test [5]) was > 30 µM in each case.

On to `Cc1cc(CCN2CCN(c3cccc(Cl)c3)CC2)n[nH]1` [MEPIPRAZOLE], for which the AC50 on Adenosine receptor A3 [1] was > 30 µM; on D(3) dopamine receptor it was 0.0358 µM; in [2], > 30 µM; in test [3], 0.003 µM; in [4] it was > 30 µM; in [5], > 30 µM.

Take `CC[N+](C)(CC)CCOC(=O)C1c2ccccc2Oc2ccccc21` [METHANTHELINE]: the AC50 (on Adenosine receptor A3 [1]; at D(3) dopamine receptor; in test [2]; in [3]; in [4]; in test [5]) was > 30 µM throughout.

For `CCOC(=O)[C@H](CCc1ccccc1)N[C@@H](C)C(=O)N1Cc2cc(OC)c(OC)cc2C[C@H]1C(=O)O` [MOEXIPRIL], the half-maximal activity concentration (AC50) (on Adenosine receptor A3 [1]; at D(3) dopamine receptor; in test [2]; in test [3]; in [4]; in test [5]) was > 30 µM in each case.

Consider `CC(c1ccc(Cl)c(Cl)c1)N1N=C(N)CC1=O` (stereo unspecified) [MUZOLIMINE], for which the AC50 (on Adenosine receptor A3 [1]; at D(3) dopamine receptor; in test [2]; in test [3]; in test [4]; in test [5]) was > 30 µM each time.

For `CCN(CC)CCOC(=O)C(Cc1cccc2ccccc12)CC1CCCO1` (stereo unspecified) [NAFRONYL], the AC50 is > 30 µM at Adenosine receptor A3 [1]; 10.1 µM on D(3) dopamine receptor; > 30 µM in test [2]; > 30 µM in test [3]; > 30 µM in test [4]; > 30 µM in [5].

As to `CNC(=O)Oc1ccc2c(c1)[C@]1(C)CCN(C)[C@@H]1N2C` [PHYSOSTIGMINE], the AC50 (at Adenosine receptor A3 [6]; on Adenosine receptor A3 [1]; in test [7]; at D(1A) dopamine receptor; at D(3) dopamine receptor; in test [8]) was > 30 µM throughout. Also, the AC50 (in test [2]; in test [9]; at Histamine H2 receptor; in test [10]; in test [3]; in test [4]) was > 30 µM in each case. Also, the AC50 (in [5]; on Motilin receptor; in test [11]; in test [12]; in [13]) was > 30 µM each time.

In the case of `c1cc(CN2CCCNCCNCCCNCC2)ccc1CN1CCCNCCNCCCNCC1` [PLERIXAFOR], the concentration at half-maximal activity (AC50) (on Adenosine receptor A3 [1]; at D(3) dopamine receptor; in test [2]; in test [3]; in test [4]; in test [5]) was > 30 µM each time.

`CO[C@H]1/C=C/O[C@@]2(C)Oc3c(C)c(O)c4c(O)c(cc(O)c4c3C2=O)NC(=O)/C(C)=C\C=C\[C@H](C)[C@H](O)[C@@H](C)[C@@H](O)[C@@H](C)[C@H](OC(C)=O)[C@@H]1C` [RIFAMYCIN]: the AC50 (on Adenosine receptor A3 [1]; on D(3) dopamine receptor; in test [2]; in test [3]; in test [4]; in test [5]) was > 30 µM in each case.

For the compound `CCCC(=O)O[C@H]1[C@H](C)O[C@@H](O[C@H]2[C@H](N(C)C)[C@@H](O)[C@H](O[C@H]3[C@@H](CC=O)C[C@@H](C)[C@@H](O)/C=C/C=C/C[C@@H](C)OC(=O)C[C@@H](O)[C@@H]3OC)O[C@@H]2C)C[C@@]1(C)OC(=O)CC` [ROKITAMYCIN], the AC50 (on Adenosine receptor A3 [1]; on D(3) dopamine receptor; in [2]; in [3]; in test [4]; in [5]) was > 30 µM throughout.

Take `COc1cc([C@@H]2c3cc4c(cc3[C@@H](O[C@@H]3O[C@@H]5CO[C@@H](c6cccs6)O[C@H]5[C@H](O)[C@H]3O)[C@H]3COC(=O)[C@H]23)OCO4)cc(OC)c1O` [TENIPOSIDE]: the AC50 (at Adenosine receptor A3 [1]; on D(3) dopamine receptor; in test [2]; in test [3]; in test [4]; in [5]) was > 30 µM throughout.

Regarding `c1ccc2[nH]c(-c3cscn3)nc2c1` [THIABENDAZOLE], the AC50 on Adenosine receptor A3 [1] was 3.73 µM; at D(3) dopamine receptor, > 30 µM; in test [2], > 30 µM; in test [3] it was > 30 µM; in [4] it was > 30 µM; in test [5] it was > 30 µM.

Consider `CCSc1ccc2c(c1)N(CCCN1CCN(C)CC1)c1ccccc1S2` [THIETHYLPERAZINE], for which the AC50 is > 10 µM on Adenosine receptor A3 [6]; 6.62 µM at Adenosine receptor A3 [1]; 0.0031 µM at D(3) dopamine receptor; > 30 µM in [2]; 0.449 µM in test [3]; > 30 µM in test [4]. The half-maximal activity concentration (AC50) in test [5] was > 30 µM; in test [12], 15 µM; in test [13], > 30 µM.
